Reference: patent EP3436445B1, “HISTONE DEMETHYLASE INHIBITORS” (Celgene Quanticel Research, Inc., priority 2016, dated 2017)

Assays:
[1] = target: T1, Jarid1B (Homo sapiens, UniProt Q9UGL1); test: Jarid1B in vitro enzyme inhibition assay (TR-FRET); format: biochemical; settings: Table 5; 0.8 nM Jarid1B, H3K4me3-biotin labeled peptide; read-out: JARID1B IC5
T1 construct: purchased BPS Bioscience (or custom made by MolecularThroughput) 50121
T1 sequence (Q9UGL1 2-751): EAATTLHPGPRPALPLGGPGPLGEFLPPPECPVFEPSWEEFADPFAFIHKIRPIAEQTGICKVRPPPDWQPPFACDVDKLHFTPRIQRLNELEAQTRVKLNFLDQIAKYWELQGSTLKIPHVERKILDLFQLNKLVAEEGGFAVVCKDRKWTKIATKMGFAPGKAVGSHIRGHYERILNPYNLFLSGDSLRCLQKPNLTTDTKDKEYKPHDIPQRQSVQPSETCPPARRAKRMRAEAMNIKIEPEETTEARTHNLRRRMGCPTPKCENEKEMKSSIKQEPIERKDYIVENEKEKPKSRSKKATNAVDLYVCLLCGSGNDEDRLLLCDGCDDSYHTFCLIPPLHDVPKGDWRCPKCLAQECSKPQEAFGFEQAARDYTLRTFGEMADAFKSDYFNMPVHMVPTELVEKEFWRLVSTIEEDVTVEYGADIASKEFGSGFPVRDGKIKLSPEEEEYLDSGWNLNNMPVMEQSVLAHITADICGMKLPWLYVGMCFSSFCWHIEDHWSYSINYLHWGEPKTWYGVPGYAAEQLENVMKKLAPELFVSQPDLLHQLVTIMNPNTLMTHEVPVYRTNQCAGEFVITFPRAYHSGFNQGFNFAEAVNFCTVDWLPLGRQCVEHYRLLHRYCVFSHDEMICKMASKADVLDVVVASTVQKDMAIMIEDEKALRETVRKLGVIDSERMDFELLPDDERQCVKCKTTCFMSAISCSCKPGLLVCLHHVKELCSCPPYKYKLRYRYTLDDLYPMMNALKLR
Excerpt: (§1) This assay determines the ability of a test compound to inhibit Jarid1B, JMJD2C and JMJD3 demethylase activity. Baculovirus expressed Jarid1B (GenBank Accession #NM-006618, AA 2-751) was purchased from BPS Bioscience (Cat #50121) or custom made by MolecularThroughput. Baculovirus expressed JMJD2C (GenBank Accession #BC143571, AA 2-372) was purchased from BPS Bioscience (Cat#50105). Baculovirus expressed JMJD3 (GenBank Accession #NM-001080424, AA1043-end) was purchased from BPS Bioscience (Cat#50115).
The ability of test compounds to inhibit the activity of Jarid1B was determined in 384-well plate format under the following reaction conditions: 0.8 nM Jarid1B, 300 nM H3K4me3-biotin labeled peptide (Anaspec cat #64357), 2 µM alpha-ketoglutaric acid in assay buffer of 50 mM HEPES, pH7.3, 0.005% Brij35, 0.5 mM TCEP, 0.2 mg/ml BSA, 50 µM sodium L-ascorbate, and 2 µM ammonium iron(II) sulfate. Reaction product was determined quantitatively by TR-FRET after the addition of detection reagent Phycolink Streptavidin-allophycocyanin (Prozyme) and Europium-anti-mono-or di-methylated histone H3 lysine 4 (H3K4me1-2) antibody (PerkinElmer) in the presence of 5 mM EDTA in LANCE detection buffer (PerkinElmer) at a final concentration of 25 nM and 1 nM, respectively.
The assay reaction was initiated by the following: 2 µl of the mixture of 900 nM H3K4me3-biotin labeled peptide and 6 µM alpha-ketoglutaric acid with 2 µl of 11-point serial diluted inhibitor in 3% DMSO was added to each well of the plate, followed by the addition of 2 µl of 2.4 nM Jarid1B to initiate the reaction. The reaction mixture was incubated at room temperature for 30 minutes, and terminated by the addition of 6 µl of 5 mM EDTA in LANCE detection buffer containing 50 nM Phycolink Streptavidin-allophycocyanin and 2 nM Europium-anti-H3K4me1-2 antibody. Plates were read by EnVisionMultilabel Reader in TR-FRET mode (excitation at 320 nm, emission at 615 nm and 665 nm) after 1 hour incubation at room temperature. A ratio was calculated (665/615) for each well and fitted to determine inhibition constant (IC50).

[2] = target: T2, JMJD3 (Homo sapiens, UniProt O15054); test: JMJD3 in vitro enzyme inhibition assay (AlphaScreen); format: biochemical; settings: Table 5; 1 nM JMJD3, H3K27me3-biotin labeled peptide
T2 construct: purchased BPS Bioscience 50115
T2 sequence (O15054 1043-1682 isoform O15054-1): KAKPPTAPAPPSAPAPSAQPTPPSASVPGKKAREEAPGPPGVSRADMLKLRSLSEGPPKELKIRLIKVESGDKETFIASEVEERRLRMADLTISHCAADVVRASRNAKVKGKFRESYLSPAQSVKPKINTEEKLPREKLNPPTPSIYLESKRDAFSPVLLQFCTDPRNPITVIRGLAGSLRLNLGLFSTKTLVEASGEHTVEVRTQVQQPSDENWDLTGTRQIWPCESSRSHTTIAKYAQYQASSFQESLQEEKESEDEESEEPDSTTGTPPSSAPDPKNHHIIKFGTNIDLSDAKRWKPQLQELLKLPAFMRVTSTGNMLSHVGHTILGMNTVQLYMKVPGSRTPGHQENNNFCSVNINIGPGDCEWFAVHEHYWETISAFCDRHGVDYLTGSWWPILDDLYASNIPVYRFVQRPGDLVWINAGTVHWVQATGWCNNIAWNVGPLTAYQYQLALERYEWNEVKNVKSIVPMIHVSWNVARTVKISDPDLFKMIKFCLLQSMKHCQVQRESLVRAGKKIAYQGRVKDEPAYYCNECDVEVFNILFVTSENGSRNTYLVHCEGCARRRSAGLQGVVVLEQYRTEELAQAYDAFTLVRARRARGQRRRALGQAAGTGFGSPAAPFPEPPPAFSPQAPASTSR
Excerpt: as §1
The ability of test compounds to inhibit the activity of JMJD3 was determined in 384-well plate format under the following reaction conditions: 1 nM JMJD3, 250 nM H3K27me3-biotin labeled peptide (Anaspec cat # 64367), 1 µM alpha-ketoglutaric acid in assay buffer of 50 mM HEPES, pH7.3, 0.005% Brij35, 0.5 mM TCEP, 0.2 mg/ml BSA, 50 µM sodium L-ascorbate, 5 µM ammonium iron(II) sulfate. Reaction product is determined quantitatively by AlphaScreen detection after the addition of detection reagents anti-H3K27me1 antibody, 5 µg/ml AlphaScreen® Streptavidin-coated Donor beads, and 5 µg/ml AlphaScreen® Protein A Acceptor beads in 50 mM HEPES, pH7.3, 10 mM NaCl, 0.005% Brij35, 10 mM EDTA, 2 mg/ml BSA.
The assay reaction was initiated by the following: 3 µl of the mixture of 750 nM H3K27me3-biotin labeled peptide and 3 µM alpha-ketoglutaric acid with 3 µl of 11-point serial diluted inhibitor in 3% DMSO are added to each well of 384 well Proxiplate (Perkin Elmer), followed by the addition of 3 µl of 3 nM JMJD3 to initiate the reaction. The reaction mixture is incubated at room temperature for 20 minutes, and terminated by the addition of 3 µl of appropriate dilution of anti H3K27me1 antibody in 50 mM HEPES, pH7.3, 10 mM NaCl, 0.005% Brij35, 10 mM EDTA, 2 mg/ml BSA. Plates will then incubated at room temperature for 1 hour, followed by addition of 3 µl of 25 µg/ml AlphaScreen® Streptavidin-coated Donor beads and AlphaScreen® Protein A Acceptor beads in 50 mM HEPES, pH7.3, 10 mM NaCl, 0.005% Brij35, 10 mM EDTA, 2 mg/ml BSA. Plates will then be read by EnVision Multilabel Reader in AlphaScreen mode after minimum 2 hour incubation at room temperature. The AlphaScreen signal for each well is used to determine inhibition constant (IC50).

| Structure (SMILES) | IC50 [1] | IC50 [2] |
| --- | --- | --- |
| COc1cccc2c1CCCC2Cn1cnc(-c2cc(-c3nn[nH]c3C(F)(F)F)ccn2)c1 (centres unmarked) [Example 104, 2-{1-[(5-methoxy-1,2,3,4-tetrahydronaphthalen-1-yl)methyl]-1H-imidazol-4-yl}-4-[5-(trifluoromethyl)-1H-1,2,3-triazol-4-yl]pyridine] | 100 to 1000 nM | > 10000 nM |
| CC(C)(C)c1ccc(CCn2cnc(-c3cc(-c4nn[nH]c4C(F)(F)F)ccn3)c2)cc1 [Example 96, 2-{1-[2-(4-tert-butylphenyl)ethyl]-1H-imidazol-4-yl}-4-[5-(trifluoromethyl)-1H-1,2,3-triazol-4-yl]pyridine] | 100 to 1000 nM | > 10000 nM |
| CC(c1ccccc1)n1cnc(-c2cc(-c3nn[nH]c3C(F)(F)F)ccn2)c1 (centres unmarked) [Example 73, 2-[1-(1-phenylethyl)-1H-imidazol-4-yl]-4-[5-(trifluoromethyl)-1H-1,2,3-triazol-4-yl]pyridine] | 100 to 1000 nM | > 10000 nM |
| COc1cccc2c1C(Cn1cnc(-c3cc(-c4nn[nH]c4C(F)(F)F)ccn3)c1)CCC2 (centres unmarked) [Example 107, 2-{1-[(8-methoxy-1,2,3,4-tetrahydronaphthalen-1-yl)methyl]-1H-imidazol-4-yl}-4-[5-(trifluoromethyl)-1H-1,2,3-triazol-4-yl]pyridine] | 100 to 1000 nM | > 10000 nM |
| CCc1ccc(CCn2cnc(-c3cc(-c4nn[nH]c4C(F)(F)F)ccn3)c2)cc1 [Example 95, 2-{1-[2-(4-ethylphenyl)ethyl]-1H-imidazol-4-yl}-4-[5-(trifluoromethyl)-1H-1,2,3-triazol-4-yl]pyridine] | 100 to 1000 nM | > 10000 nM |
| Fc1cccc(F)c1Cn1cnc(-c2cc(-c3nn[nH]c3C(F)(F)F)ccn2)c1 [Example 69, 2-{1-[(2,6-difluorophenyl)methyl]-1H-imidazol-4-yl}-4-[5-(trifluoromethyl)-1H-1,2,3-triazol-4-yl]pyridine] | 100 to 1000 nM | > 10000 nM |
| Fc1cccc2c1CCCC2Cn1cnc(-c2cc(-c3nn[nH]c3C(F)(F)F)ccn2)c1 (centres unmarked) [Example 99, 2-{1-[(5-fluoro-1,2,3,4-tetrahydronaphthalen-1-yl)methyl]-1H-imidazol-4-yl}-4-[5-(trifluoromethyl)-1H-1,2,3-triazol-4-yl]pyridine] |  | > 10000 nM |
| CC(C)C(c1ccccc1)n1cnc(-c2cc(-c3nn[nH]c3C(F)(F)F)ccn2)c1 (centres unmarked) [Example 75, 2-[1-(2-methyl-1-phenylpropyl)-1H-imidazol-4-yl]-4-[5-(trifluoromethyl)-1H-1,2,3-triazol-4-yl]pyridine] |  | > 10000 nM |

Results, then the compound that gave them:

| IC50 [1] | IC50 [2] | Structure (SMILES) |
| --- | --- | --- |
| ≤ 100 nM | > 10000 nM | O=C(c1ccccc1)N1CCC[C@@H](n2cnc(-c3cc(-c4nn[nH]c4C(F)(F)F)ccn3)c2)C1 [Example 89, 2-{1-[(3R)-1-benzoylpiperidin-3-yl]-1H-imidazol-4-yl}-4-[5-(trifluoromethyl)-1H-1,2,3-triazol-4-yl]pyridine] |
| 100 to 1000 nM | > 10000 nM | Cc1ccc(Cn2cnc(-c3cc(-c4nn[nH]c4C(F)(F)F)ccn3)c2)c(F)c1 [Example 71, 2-{1-[(2-fluoro-4-methylphenyl)methyl]-1H-imidazol-4-yl}-4-[5-(trifluoromethyl)-1H-1,2,3-triazol-4-yl]pyridine] |
| 100 to 1000 nM | > 10000 nM | FC(F)(F)c1[nH]nnc1-c1ccnc(-c2cn(Cc3ccccc3Cl)cn2)c1 [Example 64, 2-{1-[(2-chlorophenyl)methyl]-1H-imidazol-4-yl}-4-[5-(trifluoromethyl)-1H-1,2,3-triazol-4-yl]pyridine] |
| 100 to 1000 nM | > 10000 nM | Fc1ccc(Cn2cnc(-c3cc(-c4nn[nH]c4C(F)(F)F)ccn3)c2)cc1 [Example 61, 2-{1-[(4-fluorophenyl)methyl]-1H-imidazol-4-yl}-4-[5-(trifluoromethyl)-1H-1,2,3-triazol-4-yl]pyridine] |
| 100 to 1000 nM | > 10000 nM | FC(F)(F)c1ccc(CCn2cnc(-c3cc(-c4nn[nH]c4C(F)(F)F)ccn3)c2)cc1 [Example 94, 4-[5-(trifluoromethyl)-1H-1,2,3-triazol-4-yl]-2-(1-{2-[4-(trifluoromethyl)phenyl]ethyl}-1H-imidazol-4-yl)pyridine] |
| ≤ 100 nM |  | FC(F)(F)c1[nH]nnc1-c1ccnc(-c2cn(CC3CCc4ccccc43)cn2)c1 (centres unmarked) [Example 83, 2-{1-[(2,3-dihydro-1H-inden-1-yl)methyl]-1H-imidazol-4-yl}-4-[5-(trifluoromethyl)-1H-1,2,3-triazol-4-yl]pyridine] |
| ≤ 100 nM | > 10000 nM | Fc1ccc(CCn2cnc(-c3cc(-c4nn[nH]c4C(F)(F)F)ccn3)c2)c(F)c1 [Example 86, 2-{1-[2-(2,4-difluorophenyl)ethyl]-1H-imidazol-4-yl}-4-[5-(trifluoromethyl)-1H-1,2,3-triazol-4-yl]pyridine] |
| ≤ 100 nM | 1000 to 10000 nM | Fc1cccc(CCn2cnc(-c3cc(-c4nn[nH]c4C(F)(F)F)ccn3)c2)c1 [Example 78, 2-{1-[2-(3-fluorophenyl)ethyl]-1H-imidazol-4-yl}-4-[5-(trifluoromethyl)-1H-1,2,3-triazol-4-yl]pyridine] |
| ≤ 100 nM |  | Fc1ccccc1CCn1cnc(-c2cc(-c3nn[nH]c3C(F)(F)F)ccn2)c1 [Example 84, 2-{1-[2-(2-fluorophenyl)ethyl]-1H-imidazol-4-yl}-4-[5-(trifluoromethyl)-1H-1,2,3-triazol-4-yl]pyridine] |
| ≤ 100 nM |  | FC(F)(F)c1ccccc1CCn1cnc(-c2cc(-c3nn[nH]c3C(F)(F)F)ccn2)c1 [Example 60, 4-[5-(trifluoromethyl)-1H-1,2,3-triazol-4-yl]-2-(1-{2-[2-(trifluoromethyl)phenyl]ethyl}-1H-imidazol-4-yl)pyridine] |
| ≤ 100 nM |  | Fc1ccc2c(c1)C(n1cnc(-c3cc(-c4nn[nH]c4C(F)(F)F)ccn3)c1)CC2 (centres unmarked) [Example 85, 2-[1-(6-fluoro-2,3-dihydro-1H-inden-1-yl)-1H-imidazol-4-yl]-4-[5-(trifluoromethyl)-1H-1,2,3-triazol-4-yl]pyridine] |
